Measurements reported in US11246929B2, “Combination of a protein kinase inhibitor and an additional chemotherapeutic agent” (Merck Patent GmbH, priority 2016, dated 2022).
Several values for one entry are separate records, joined by “and”; a condition that tells them apart may be missing. Identical values can stand only once. Like-named read-outs stand apart in the source and are kept apart here. Blank lines part the entries; values can stand above or below the molecule they belong to.

What was measured:
[1] = system: NCI-H460 (lung, large cell) xenograft; test: Xenograft, fractionated IR plus Compound 1, time to TV400%; format: in vivo, mouse
Method: (§1) The therapeutic relevance of DNA-PK inhibition by Compound 1 was investigated in vivo in combination with ionizing radiation (IR), a clinically established DSB-inducing treatment. Compound 1 was tested for activity in six xenograft mouse models of human cancer. The models were chosen from different cancer indications (colon, lung, head and neck, pancreatic), and histological subtypes (adeno, squamous, large cell). Ionizing radiation was administered using a fractionated schedule of 2 Gy per day administered over five consecutive days (total radiation dose=10 Gy). Compound 1 was given orally 10 min prior to each fraction of radiation (ONC397-1-2AZ, ONC397-1-3AZ, ONC397-1-4AZ, ONC397-1-5AZ, ONC397-1-8AZ).
(§2) Radiotherapy enhancing effect of Compound 1 was quantified across the tested models by the time to reaching 400% initial volume for the 150 mg/kg study arms. The resulting Kaplan-Meier plots were compared by the log-rank test.

[2] = system: BxPC3 (pancreas, adeno) xenograft; test: as above; format: in vivo, mouse
Method: as §1, §2

[3] = system: A549 (lung, adeno) xenograft; test: as above; format: in vivo, mouse
Method: as §1, §2

[4] = system: Capan-1 (pancreas, adeno) xenograft; test: as above; format: in vivo, mouse
Method: as §1, §2

[5] = system: HCT116 (colon, adeno) xenograft; test: as above; format: in vivo, mouse
Method: as §1, §2

FaDu xenograft = format: in vivo
Description: The standard radiotherapy regimen used in the clinic is a 6-week fractionated treatment schedule (5 fractions of 2 Gy IR per week—60 Gy total).

DNA-PK (p-Ser2056) = target: T1, DNA-PK (p-Ser2056) (Homo sapiens, UniProt P78527); test: IR-induced DNA-PK phosphorylation in tumor tissue, ELISA, HCT116 xenograft; format: in vivo; details: IR 50 Gy
T1 construct: from tissue; host or cells: human tumor xenografts (FaDu, HCT116, WM164) grown in mice
Description: Following the induction of DSB by radiation therapy or other DNA damaging agents, the catalytic subunit of DNA-PK (DNA-PKc) is autophosphorylated at several serine and threonine residues. Ser2056 is one of the most prominent and best studied autophosphorylation sites. Because Ser2056 phosphorylation (p-Ser2056) correlated well with DNA-PK activation state it was chosen as the pharmacodynamics (PD) biomarker. Two different assay formats were established to measure p-Ser2056 in tumor tissue: ELISA and MSD format. In order to detect sequence reliable signal, IR was used at 50 Gy for the ELISA assay and 10 Gy for the more sensitive MSD assay.

[6] = system: FaDu (H&N, squamous) xenograft; format: in vivo
Description: The models were chosen from different cancer indications (colon, lung, head and neck, pancreatic), and histological subtypes (adeno, squamous, large cell). […]
The resulting Kaplan-Meier plots were compared by the log-rank test.

HEPG2 = test: cells; details: Homo sapiens, HepG2, read-out: GI50 of etoposide (±Compound 1)
Method: (§3) 90 μl of cells, after a 48-hour pre-growth period, were treated by mixing with 10 μl of the compound-containing media (resulting in a final DMSO concentration of 0.1%).
(§4) This is the drug concentration causing a 50% reduction compared to the net protein increase in control cells during the drug incubation period. In other words, G150 is IC50 corrected for time zero. […] TGI was calculated from Ti=Tz. […] It was calculated as 100×[(Ti−Tz)/Tz]=−50.

SKHEP1 = test: cells; details: Homo sapiens, SK-HEP1, read-out: GI50 of etoposide (±Compound 1)
Method: as §3, §4

PLCPRF5 = test: cells; details: Homo sapiens, PLC-PRF-5, read-out: GI50 of etoposide (±Compound 1)
Method: as §3, §4

MT3 = test: cells; details: MT-3, read-out: GI50 of etoposide (±Compound 1)
Method: as §3, §4

COLO678 = test: Single agent activity, panel of 81 cancer cell lines plus PBMC; format: cell-based; details: Homo sapiens, COLO-678
panel of 93 cell lines = test: SRB growth inhibition, 93 cell lines panel (summary); format: cell-based
Method: as §3, §4
The * or ** mark the lowest or highest tested concentrations. […] Both uM and μM stand for micromolar.

SNB75 = test: SRB growth inhibition, 93 cell lines panel; details: Homo sapiens, SNB-75, read-out: GI50 of etoposide (±Compound 1)
CACO2 = test: cells; details: Homo sapiens, Caco-2, read-out: GI50 of etoposide (±Compound 1)
JEG3 = test: Single agent activity, panel of 81 cancer cell lines plus PBMC; format: cell-based; details: Homo sapiens, JEG-3, lower end of range
colon cancer cell lines = test: cells; details: read-out: Median etoposide concentration needed to reach GI50
1587MG = test: SRB growth inhibition, 93 cell lines panel; details: read-out: GI50 of etoposide (±Compound 1)
[7] = IR 10 Gy (5 x 2 Gy) + Compound 1 150 mg/kg po
[8] = IR 10 Gy (5 x 2 Gy) + Compound 1 150 mg/kg po 10 min prior to each fraction

Structure (SMILES): COc1ccc([C@@H](O)c2cc(-c3ncnc4cc(N5CCOCC5)ccc34)c(F)cc2Cl)nn1 [Compound 1, (S)-[2-chloro-4-fluoro-5-(7-morpholin-4-yl-quinazolin-4-yl)-phenyl]-(6-methoxy-pyridazin-3-yl)-methanol]
- Enhancement Ratio [combi/IR only] [1, 7]: 2.6
- median time to TV400% Combi [1, 8]: 45 days
- Enhancement Ratio [combi/IR only] [2, 7]: 2
- median time to TV400% Combi [2, 8]: 73.5 days
- Enhancement Ratio [combi/IR only] [3, 7]: 1.5
- median time to TV400% Combi [3, 8]: 42 days
- Enhancement Ratio [combi/IR only] [4, 7]: 2
- median time to TV400% Combi [4, 8]: 132 days
- Enhancement Ratio [combi/IR only] [5, 7]: 1.5
- median time to TV400% Combi [5, 8]: 46 days
- complete tumor regression, % of the animals (FaDu xenograft; 6 weeks IR (60 Gy total) + 10 mg/kg po, no regrowth during study period (113 days)): 44%
- tumor regression (FaDu xenograft; 6 weeks IR (60 Gy total) + 25 and 50 mg/kg po): regressed in all 10 animals
- tumor growth in comparison to IR alone (FaDu xenograft; 6 weeks IR (60 Gy total) + Compound 1 po): strong inhibition of tumor growth
- tolerability (FaDu xenograft; 6 weeks IR + Compound 1): generally well tolerated
- inhibition of IR-induced DNA-PK phosphorylation (Ser2056) (DNA-PK (p-Ser2056)): Dose-dependent inhibition
- Enhancement Ratio [combi/IR only] [6, 7]: 2.1
- median time to TV400% Combi [6, 8]: 46 days
- tumor response ([6]; daily 4 Gy (20 Gy total), 100 mg/kg, 92 day observation period): complete response
- Enhancement Ratio [combi/IR only] ([6]; total IR 10 Gy, 25 mg/kg po): 1.4
- median time to TV400% Combi ([6]; total IR 10 Gy, 25 mg/kg po): 29.5 days
- Enhancement Ratio [combi/IR only] ([6]; total IR 10 Gy, 100 mg/kg po): 1.9
- median time to TV400% Combi ([6]; total IR 10 Gy, 100 mg/kg po): 40 days
- median time to TV400% Combi ([6]; total IR 10 Gy, 300 mg/kg po): >63 days
- CR (complete response) ([6]; total IR 10 Gy, 300 mg/kg po, d 63): 60% CR
- Enhancement Ratio [combi/IR only] ([6]; total IR 20 Gy, 5 mg/kg po): 0.9
- median time to TV400% Combi ([6]; total IR 20 Gy, 5 mg/kg po): 43 days
- Enhancement Ratio [combi/IR only] ([6]; total IR 20 Gy, 10 mg/kg po): 1.13
- median time to TV400% Combi ([6]; total IR 20 Gy, 10 mg/kg po): 56.5 days
- median time to TV400% Combi ([6]; total IR 20 Gy, 100 mg/kg po): >94 days
- CR (complete response) ([6]; total IR 20 Gy, 100 mg/kg po, d 94): 100% CR
- Enhancement Ratio [combi/IR only] ([6]; total IR 30 Gy (6 Gy daily), 10 mg/kg po, 10 mg/kg): 2 and 1.9
- Enhancement Ratio [combi/IR only] ([6]; total IR 30 Gy, 5 mg/kg po): 1.4
- median time to TV400% Combi ([6]; total IR 30 Gy, 5 mg/kg po): 69 days
- median time to TV400% Combi ([6]; total IR 30 Gy, 10 mg/kg po): 94 days
- tolerability ([6]; total IR 30 Gy, 100 mg/kg po): not tolerated

- GI50 (HEPG2): 806 nM
- GI50 (SKHEP1): 83 nM
- GI50 (COLO678): > 10000 nM
- GI50 (CACO2): 3650 nM
- GI50 (JEG3): 30 nM
- GI50 (colon cancer cell lines): 700 nM
Structure (SMILES): COc1cc([C@@H]2c3cc4c(cc3[C@@H](O[C@@H]3O[C@@H]5CO[C@@H](C)O[C@H]5[C@H](O)[C@H]3O)[C@H]3COC(=O)[C@H]23)OCO4)cc(OC)c1O [Etoposide]
- GI50 (PLCPRF5): 6250 nM
- GI50 (MT3): 609 nM
- GI50 (panel of 93 cell lines; read-out: Average GI50): 1700 nM
- GI50 (panel of 93 cell lines; read-out: Median GI50): 900 nM
- GI50 (panel of 93 cell lines; read-out: Most resistant cell line (GI50)): > 10000 nM
- GI50 (panel of 93 cell lines; read-out: Most sensitive cell line (GI50)): 38 nM
- GI50 (SNB75): 3790 nM
- GI50 (1587MG): 2400 nM
